{"source": "a melting point compilation (Tetko et al.; mined from patent text by program, amines drawn as free bases though some values may be those of a salt)"}
{"units": {"melting point": "°C"}}
{"smiles": "COc1cccc(N2CCCN(/C(C)=C(/C#N)C(N)=S)CC2)c1", "melting point": "129 to 131"}
{"smiles": "CCOC(=O)c1ccc(C(=O)OCC)c2cc3ccccc3cc12", "melting point": "99 to 100"}
{"smiles": "Cn1nc(N)nc1NCCCOc1cccc2c(N3CCCCC3)nccc12", "melting point": 173}
{"smiles": "N#CCNC(=O)c1ccco1", "melting point": "85 to 93"}
{"smiles": "O=C(NCc1cccnc1)c1ccnc(N2CCN(CC3CC3)C2=O)c1", "melting point": "122 to 123"}
{"smiles": "Cc1ccc(N(CCN2CCC(C(=O)c3ccc(F)cc3)CC2)C(=O)c2cccc(N)c2)cc1", "melting point": "173 to 175"}
{"smiles": "Nc1nc2[nH]c(CCCc3cc(C(=O)N[C@@H](CCC(=O)O)C(=O)O)cs3)cc2c(=O)[nH]1", "melting point": "191 to 192"}
{"smiles": "CCCCS(=O)(=O)Nc1ccc(C(=O)c2ccccc2)cc1", "melting point": "76 to 80"}
{"smiles": "CC(=O)C(=Cc1cccc([N+](=O)[O-])c1)P(=O)(OCC(C)(C)C)OCC(C)(C)C", "melting point": "139 to 140"}
{"smiles": "COc1cc(OCCCN2CCc3cc(OC)c(OC)cc3C2)ccc1NC(=O)c1cccc2c(=O)c3cccc(F)c3[nH]c12", "melting point": 152}
{"smiles": "CCCN(C1CCC(c2c[nH]c3ccc(F)cc23)CC1)C1COc2cccc(OC)c2C1", "note": "(stereo not given)", "melting point": 148}
{"smiles": "CC(C)c1ccc(-c2cnc(-c3cccc(C(=O)O)c3)[nH]2)cc1", "melting point": "296 to 298"}
{"smiles": "Cc1ccc(S(=O)(=O)OCC2Cc3cc(C(F)(F)F)cc(Br)c3O2)cc1", "note": "(stereo not given)", "melting point": "95 to 97"}
{"smiles": "COc1ccc2c(Cc3ccco3)nnc(-c3ccccc3)c2c1", "melting point": "128 to 129"}
{"smiles": "CCN1C(=O)C(C(=O)c2cccs2)c2cc(Cl)cnc21", "note": "(stereo not given)", "melting point": "111 to 112"}
{"smiles": "C=CCc1ccc(CCNC(=O)c2cc(Cl)ccc2OC)cc1S(=O)(=O)NC(=O)NC", "melting point": "124 to 126"}
{"smiles": "OC1CCn2c(CCc3ccccc3)nc3cccc1c32", "note": "(stereo not given)", "melting point": "125 to 126"}
{"smiles": "CCOC(=O)C1=NS(=O)(=O)c2ccccc21", "melting point": "114 to 115"}
{"smiles": "Nc1c(Cl)cc(C(O)CNCCCCCCOCCCc2ccc(CO)cc2)cc1Cl", "note": "(stereo not given)", "melting point": "56 to 59"}
{"smiles": "Cc1cc(C)cc(S(=O)(=O)n2c(CCCC(=O)O)cc3cc(Cl)ccc32)c1", "melting point": "204 to 206"}
{"smiles": "CCN(CC)C(=O)c1cc(-c2ccccc2)c2ccccc2c1OC", "melting point": "102 to 103"}
{"smiles": "COc1ccc(C2CNC(=O)NC2)cc1OC(F)F", "melting point": "215 to 216"}
{"smiles": "CC(=O)N(CCCCC(=O)O)C(c1ccccc1)c1ccccc1", "melting point": "135 to 136"}
{"smiles": "CC1(C)C(c2ccc(S(C)(=O)=O)cc2)=C(c2ccccc2)C1F", "note": "(stereo not given)", "melting point": "79 to 81.5"}
{"smiles": "C[C@H](NC(=O)c1nc(CCCc2ccccc2)c[nH]1)C(=O)NC(C=O)CC(=O)O", "note": "(stereo not given in full)", "melting point": "94 to 96"}
{"smiles": "CCOC(=O)c1c[nH]c2cc(Cl)ncc2c1=O", "melting point": 300}
{"smiles": "COc1ccc(-c2cccc(-c3nc(=O)c4ccccc4s3)n2)cc1", "melting point": "200 to 201"}
{"smiles": "CC(C)CNC1=NS(=O)(=O)c2sc(Cl)cc2N1", "melting point": "262 to 264"}
{"smiles": "CCn1ccc(-c2sc(NC(=O)c3ccncc3)nc2-c2ccco2)cc1=O", "melting point": "245 to 248"}
{"smiles": "CC1CNc2c(cccc2S(=O)(=O)N[C@@H](CCCNC(=N)N)C(=O)N2CC[C@@H](C)C[C@@H]2C(=O)O)C1", "note": "(stereo not given in full)", "melting point": "188 to 191"}
{"smiles": "COc1cccc(C(=N)NN2CCc3ccccc3C2=O)c1", "melting point": "176 to 177"}
{"smiles": "Cc1c(N)cccc1-c1ccnc(Nc2ccc(C(=O)N3CCOCC3)cc2)n1", "melting point": "183 to 184"}
{"smiles": "CCOC(=O)c1ccc(C(=O)Nc2ccc3c(c2)N(C)C(=O)CCC3(C)C)cc1", "melting point": "174 to 175"}
{"smiles": "CCc1cc2c(-c3ccccc3Cl)c(NC(=O)C=Cc3cc(OC)c(OC(C)=O)c(OC)c3)cnc2s1", "melting point": "133 to 135"}
{"smiles": "CCCCc1oc2ccc([N+](=O)[O-])cc2c1C(=O)c1ccc(OCCCCCN(CCCC)CCCC)cc1", "melting point": 107}
{"smiles": "O=C(CCC(F)(F)F)Nc1ccccc1", "melting point": 187}
{"smiles": "COC(=O)c1c([N+](=O)[O-])cc(OC)c(OC)c1OC", "melting point": "74 to 76"}
{"smiles": "Cc1ccc2ccc(C)c(O)c2c1", "melting point": "124 to 125"}
{"smiles": "Cn1cc(S(C)(=O)=O)c(=O)c2ccc(F)cc21", "melting point": "222 to 224"}
{"smiles": "Cc1ccc(N2C(=O)C(O)=C(C(=NOCC(=O)O)c3ccc(C(C)C)cc3)C2c2ccc(C(C)C)cc2)nn1", "note": "(stereo not given)", "melting point": 234}
{"smiles": "Cc1cc(N2C=C3C(c4ccccc4)=C(OCc4ncn(C)n4)NN3C=N2)no1", "melting point": "194 to 196"}
{"smiles": "CC1(C)CC(=O)c2c(NCc3ccccn3)sc(-c3cc[nH]n3)c2C1", "melting point": "210 to 213"}
{"smiles": "CC(C)(C)[C@@H](CO)NC(=O)[C@@H](CC(=O)O)n1ccc(-c2ccc(-c3ccc(C#N)cc3)cc2)c1", "melting point": "110 to 112"}
{"smiles": "CCOC(=O)c1cn(-c2nnnn2C)c2nc(Cl)c(F)cc2c1=O", "melting point": "210 to 215"}
{"smiles": "OC(c1ccnc2cc(Cl)ccc12)C(F)(F)F", "note": "(stereo not given)", "melting point": 161}
{"smiles": "Cc1ccc(CC2CCN(C(=O)C(=O)Nc3ccc(NS(C)(=O)=O)cc3)CC2)cc1", "melting point": "179 to 181"}
{"smiles": "CC(C)Cn1c(C(C)(C)O)nc2c(N)nc3ccccc3c21", "melting point": "214 to 217"}
{"smiles": "CN(C)S(=O)(=O)c1cc(C(=O)O)cc([N+](=O)[O-])c1Oc1ccccc1", "melting point": "224 to 226"}
{"smiles": "COc1ccc(O)c(C(C)(O)c2ccccc2)c1", "note": "(stereo not given)", "melting point": 114}
{"smiles": "O=C(O)CCc1ccc2c(c1)oc1ccc(Cl)cc12", "melting point": "174 to 178"}
{"smiles": "O=C(Nc1cccnc1NCC(O)c1ccccc1)c1ccc(Cl)cc1", "note": "(stereo not given)", "melting point": "157 to 159"}
{"smiles": "Nc1nn(-c2ccccc2)cc1CO", "melting point": "127 to 128"}
{"smiles": "O=C(CCN1CCN(c2ccnc3ccccc23)CC1)c1csc2ccccc12", "melting point": "134 to 136"}
{"smiles": "CN(CCO)Cc1cc(NC(=N)c2cccs2)ccc1C1CCCC1", "melting point": "116 to 118"}
{"smiles": "O=C(NC(=O)c1ccccn1)NC1CN2CCC1CC2", "note": "(stereo not given)", "melting point": "202 to 203"}
{"smiles": "CCCC[C@@H](NC(=O)[C@H](Cc1ccc(O)cc1)NC(=O)OC(C)(C)C)C(=O)NCC(=O)O", "melting point": "174 to 175"}
{"smiles": "O=S(=O)(c1ccccc1)c1c[nH]c2c(CCN3CCN(Cc4ccccc4)CC3)cccc12", "melting point": "80 to 82"}
{"smiles": "Clc1cc(C(Cl)(Cl)Cl)c(Cl)cc1C(Cl)(Cl)Cl", "melting point": "202 to 203"}
{"smiles": "Cc1ccc(S(=O)(=O)N2CCn3c(c(C(N)=O)c(Cl)c3-c3ccccc3)C2)cc1", "melting point": "188 to 190"}
{"smiles": "Cc1c(F)c(Oc2cccc(C(F)(F)F)c2)nc(-c2ccc(C(F)(F)F)cc2)c1F", "melting point": 87}
{"smiles": "CCCCc1c(CNC(=O)OC(C)(C)C)c(CC(C)C)nc2ccc(O)cc12", "melting point": "198 to 200"}
{"smiles": "O=c1nc(Cc2ccccc2)nc2n(C3CCCC3)[nH]c(Cc3ccccc3)c1-2", "melting point": "204 to 206"}
{"smiles": "CCCN1N=C2C(=Cc3ccccc3)CS(=O)CC2C1c1ccccc1", "note": "(stereo not given)", "melting point": "164 to 166"}
{"smiles": "COCCNCCOc1ccc(NC(=O)c2ccccc2NS(C)(=O)=O)cc1", "melting point": "164 to 165"}
{"smiles": "CCc1c(C(=O)c2cc(Cl)cc(Cl)c2)[nH]c(=O)[nH]c1=O", "melting point": "242 to 243"}
{"smiles": "O=C(CI)Nc1ccc(C(=O)O)cc1", "melting point": "194 to 196"}
{"smiles": "CC(=O)Nc1ncc(-c2ccncc2)cn1", "melting point": "261 to 264"}
{"smiles": "Cc1nnc2n1-c1sc(C#CCN3C(=O)c4ccccc4S3(=O)=O)cc1C(c1ccccc1Cl)=NC2", "melting point": "232 to 234"}
{"smiles": "O=S(=O)(c1ccccc1)c1ccc2c(c1)NCC(C(F)F)(C(F)F)O2", "melting point": "100 to 113"}
{"smiles": "O=C1CC(=O)NC(c2ccc(Cl)cc2)=N1", "melting point": "120 to 121"}
